Consider 27 molecules from US8772480B2, “Inhibitors of PI3 kinase and/or mTOR” (priority 2009, dated 2014).

Structures are written as SMILES.

In experiment [1] the test system is phosphorylation of Akt at Serine 473 in U87 MG cells. In words: cells. The note with it: Homo sapiens, U-87 MG, 2 h, read-out: U87Cell IC50, pAkt (Ser 473), U87 MG cells, two hours with compound.
In experiment [2] the target is PI3Kα (Homo sapiens (Human), UniProt P42336). The note with it: read-out: PI3Kα AlphaScreen ® Ki. Background: Alpha assays give light when donor and acceptor beads are brought close together.
Chain of PI3Kα (P42336 whole entry): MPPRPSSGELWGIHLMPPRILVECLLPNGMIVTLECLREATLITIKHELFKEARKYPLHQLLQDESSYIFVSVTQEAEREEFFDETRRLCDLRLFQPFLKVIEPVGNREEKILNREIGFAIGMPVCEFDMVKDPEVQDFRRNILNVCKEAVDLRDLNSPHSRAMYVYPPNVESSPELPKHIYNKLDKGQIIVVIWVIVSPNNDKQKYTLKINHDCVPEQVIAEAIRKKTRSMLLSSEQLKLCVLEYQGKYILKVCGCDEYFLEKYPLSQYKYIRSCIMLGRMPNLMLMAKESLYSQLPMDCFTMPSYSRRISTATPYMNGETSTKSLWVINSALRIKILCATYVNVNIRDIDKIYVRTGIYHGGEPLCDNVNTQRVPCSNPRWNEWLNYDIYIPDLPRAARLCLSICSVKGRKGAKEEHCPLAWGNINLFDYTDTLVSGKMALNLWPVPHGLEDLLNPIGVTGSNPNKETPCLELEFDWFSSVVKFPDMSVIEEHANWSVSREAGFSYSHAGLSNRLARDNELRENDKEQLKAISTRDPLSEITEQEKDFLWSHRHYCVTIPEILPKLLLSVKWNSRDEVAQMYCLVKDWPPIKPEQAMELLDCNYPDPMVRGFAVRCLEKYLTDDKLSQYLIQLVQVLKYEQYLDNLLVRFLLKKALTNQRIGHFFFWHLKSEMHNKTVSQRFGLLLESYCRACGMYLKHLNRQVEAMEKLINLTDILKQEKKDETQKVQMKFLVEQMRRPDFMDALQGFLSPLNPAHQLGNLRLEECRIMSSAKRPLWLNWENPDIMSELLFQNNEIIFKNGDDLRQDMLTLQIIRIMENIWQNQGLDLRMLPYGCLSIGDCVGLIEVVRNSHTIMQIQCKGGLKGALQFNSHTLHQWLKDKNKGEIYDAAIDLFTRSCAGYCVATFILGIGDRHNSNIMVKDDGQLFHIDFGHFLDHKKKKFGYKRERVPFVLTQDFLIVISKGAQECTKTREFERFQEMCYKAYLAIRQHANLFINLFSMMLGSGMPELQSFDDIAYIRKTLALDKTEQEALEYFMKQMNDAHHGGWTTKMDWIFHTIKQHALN
Chain of PI3Kα (P27986 whole entry partner): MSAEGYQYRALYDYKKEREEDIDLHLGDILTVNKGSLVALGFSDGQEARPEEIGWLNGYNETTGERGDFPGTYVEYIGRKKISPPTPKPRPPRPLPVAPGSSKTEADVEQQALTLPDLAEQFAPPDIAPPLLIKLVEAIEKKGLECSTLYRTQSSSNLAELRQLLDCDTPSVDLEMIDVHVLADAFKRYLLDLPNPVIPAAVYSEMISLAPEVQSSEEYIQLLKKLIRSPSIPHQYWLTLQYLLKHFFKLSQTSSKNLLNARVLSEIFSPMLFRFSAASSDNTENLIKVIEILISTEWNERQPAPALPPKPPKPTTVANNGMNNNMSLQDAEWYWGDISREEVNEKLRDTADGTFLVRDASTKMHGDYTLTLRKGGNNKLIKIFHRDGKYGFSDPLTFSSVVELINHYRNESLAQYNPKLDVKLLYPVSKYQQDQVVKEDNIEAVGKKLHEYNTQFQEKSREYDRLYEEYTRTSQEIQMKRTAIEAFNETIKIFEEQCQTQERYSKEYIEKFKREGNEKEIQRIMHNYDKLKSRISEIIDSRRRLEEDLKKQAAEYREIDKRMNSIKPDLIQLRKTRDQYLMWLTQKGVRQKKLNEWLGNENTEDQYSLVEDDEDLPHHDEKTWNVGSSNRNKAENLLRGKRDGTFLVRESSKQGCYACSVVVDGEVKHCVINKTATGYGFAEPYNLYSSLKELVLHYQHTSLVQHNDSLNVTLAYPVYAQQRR

With `COc1ncc(Nc2ncc(CN3CCN(S(C)(=O)=O)CC3C(F)(F)F)cc2-c2nc(C)nc(N)n2)cc1F` (stereo not drawn) [Example 313, 4-(2-(5-Fluoro-6-Methoxypyridin-3-Ylamino)-5-((4-(Methylsulfonyl)-2-(Trifluoromethyl)Piperazin-1-yl)Methyl)Pyridin-3-yl)-6-Methyl-1,3,5-Triazin-2-Amine], the IC50 – broadly, the midpoint of a concentration-inhibition curve – in experiment [1] was over 10000 nM. The Ki (usually the dissociation constant of the complex between target and ligand, obtained from inhibition or displacement) in experiment [2] amounted to 7 nM.
Taken in the same sequence, the figures for `COc1ncc(Nc2ncc(CN3CCOC[C@@H]3C)cc2-c2nc(C)nc(N)n2)cc1F` [Example 315, (S)-4-(2-(5-Fluoro-6-Methoxypyridin-3-Ylamino)-5-((3-Methylmorpholino)Methyl)Pyridin-3-yl)-6-Methyl-1,3,5-Triazin-2-Amine] were 31 nM and 27 nM.
On to `COc1cc(Nc2ncc(CN3CCN(S(C)(=O)=O)C[C@@H]3C)cc2-c2nc(C)nc(N)n2)cnc1Cl` [Example 317, (S)-4-(2-(6-Chloro-5-Methoxypyridin-3-Ylamino)-5-((2-Methyl-4-(Methylsulfonyl)Piperazin-1-yl)Methyl)Pyridin-3-yl)-6-Methyl-1,3,5-Triazin-2-Amine], for which the IC50 in experiment [1] is 12 nM. Besides, the Ki in experiment [2] came to 18 nM.
Taken in the same sequence, the figures for `Cc1nc(N)nc(-c2cc(CN3CCN(S(C)(=O)=O)C[C@@H]3C)cnc2Nc2ccc(Cl)nc2)n1` [Example 318, (S)-4-(2-(6-Chloropyridin-3-Ylamino)-5-((2-Methyl-4-(Methylsulfonyl)Piperazin-1-yl)Methyl)Pyridin-3-yl)-6-Methyl-1,3,5-Triazin-2-Amine] were 44 nM and 32 nM.
Taken in the same sequence, the figures for `COc1ncc(Nc2ncc(CN3CCN(S(C)(=O)=O)C[C@@H]3C)cc2-c2nc(C)nc(N)n2)cn1` [Example 319, (S)-4-(2-(2-Methoxypyrimidin-5-Ylamino)-5-((2-Methyl-4-(Methylsulfonyl)Piperazin-1-yl)Methyl)Pyridin-3-yl)-6-Methyl-1,3,5-Triazin-2-Amine] were 52 nM and 21 nM.
As for `COc1ccc(Nc2ncc(C(C)(O)C(F)(F)F)cc2-c2nc(C)nc(N)n2)cn1` (stereo not drawn) [Example 320, 2-(5-(4-amino-6-methyl-1,3,5-triazin-2-yl)-6-(6-methoxypyridin-3-ylamino)pyridin-3-yl)-1,1,1-trifluoropropan-2-ol], in experiment [1], the 50% inhibitory concentration (IC50) was 61 nM. For the same molecule, the Ki in experiment [2] was 124 nM.
As for `COc1ccc(Nc2ncc(C(N3CCN(S(C)(=O)=O)CC3)C(F)(F)F)cc2-c2nc(C)nc(N)n2)cn1` (stereo not drawn) [Example 321, 4-(2-(6-Methoxypyridin-3-Ylamino)-5-(2,2,2-Trifluoro-1-(4-(Methylsulfonyl)Piperazin-1-yl)Ethyl)Pyridin-3-yl)-6-Methyl-1,3,5-Triazin-2-Amine], in experiment [1], the IC50 is 80 nM. Also, the Ki in experiment [2] is 34 nM.
In the same order, the values of `COc1ccc(Nc2ncc([C@@H](O)C(F)(F)F)cc2-c2nc(C)nc(N)n2)cn1` [Example 322, (R)-1-(5-(4-amino-6-methyl-1,3,5-triazin-2-yl)-6-(6-methoxypyridin-3-ylamino)pyridin-3-yl)-2,2,2-trifluoroethanol] are 51 nM and 86 nM.
In the case of `COc1ccc(Nc2ncc([C@H](O)C(F)(F)F)cc2-c2nc(C)nc(N)n2)cn1` [Example 323, (S)-1-(5-(4-amino-6-methyl-1,3,5-triazin-2-yl)-6-(6-methoxypyridin-3-ylamino)pyridin-3-yl)-2,2,2-trifluoroethanol], the IC50 in experiment [1] worked out at 46 nM. Further, in experiment [2], the Ki was 34 nM.
As for `COc1ccc(Nc2ncc(C(N)C(F)(F)F)cc2-c2nc(C)nc(N)n2)cn1` (stereo not drawn) [Example 324, 4-(5-(1-Amino-2,2,2-Trifluoroethyl)-2-(6-Methoxypyridin-3-Ylamino)Pyridin-3-yl)-6-Methyl-1,3,5-Triazin-2-Amine], the IC50 in experiment [1] stood at 106 nM. Also, in experiment [2], the Ki is 59 nM.
In the same order, the values of `Cc1nc(N)nc(-c2cc(CN3CCN(S(C)(=O)=O)CC3)cnc2Nc2ccc3ccncc3c2)n1` [Example 326, N-(3-(4-Amino-6-Methyl-1,3,5-Triazin-2-yl)-5-((4-(Methylsulfonyl)Piperazin-1-yl)Methyl)Pyridin-2-yl)Isoquinolin-7-Amine] are 57 nM and 68 nM.
In the same order, the values of `COc1ncc(Nc2ncc(C(C)N)cc2-c2nc(C)nc(N)n2)cc1F` (stereo not drawn) [Example 327, 4-(5-(1-Aminoethyl)-2-(5-Fluoro-6-Methoxypyridin-3-Ylamino)Pyridin-3-yl)-6-Methyl-1,3,5-Triazin-2-Amine] are 146 nM and 69 nM.
In the same order, the values of `COCCOc1cnc(Nc2cnc(OC)c(NS(C)(=O)=O)c2)c(-c2nc(C)nc(N)n2)c1` [Example 336, N-(5-(3-(4-Amino-6-Methyl-1,3,5-Triazin-2-yl)-5-(2-Methoxyethoxy)Pyridin-2-Ylamino)-2-Methoxypyridin-3-yl)Methanesulfonamide] are 36 nM and 55 nM.
For `COc1ncc(Nc2ncc(CN3CCOCC3)cc2-c2nc(C)nc(N)n2)cc1NS(C)(=O)=O` [Example 337, N-(5-(3-(4-Amino-6-Methyl-1,3,5-Triazin-2-yl)-5-(Morpholinomethyl)Pyridin-2-Ylamino)-2-Methoxypyridin-3-yl)Methanesulfonamide], in experiment [1], the IC50 came out at 21 nM. The Ki in experiment [2] worked out at 98 nM.
In the same order, the values of `Cc1nc(-c2cccnc2Nc2cnc(Cl)c(NS(C)(=O)=O)c2)c2nc[nH]c2n1` [Example 338, N-(2-Chloro-5-(3-(2-Methyl-9H-Purin-6-yl)Pyridin-2-Ylamino)Pyridin-3-yl)Methanesulfonamide] are 46 nM and 5 nM.
Taken in the same sequence, the figures for `Cc1nc(-c2cc(C(C)N3CCOCC3)cnc2Nc2cnc(Cl)c(NS(C)(=O)=O)c2)c2nc[nH]c2n1` (stereo not drawn) [Example 339, N-(2-Chloro-5-(3-(2-Methyl-9H-Purin-6-yl)-5-(1-Morpholinoethyl)Pyridin-2-Ylamino)Pyridin-3-yl)Methanesulfonamide] were 45 nM and 3 nM.
As to `Cc1nc(-c2cc(C(C)N3CCOCC3)cnc2Nc2cnc(Cl)c(NS(=O)(=O)N(C)C)c2)c2nc[nH]c2n1` (stereo not drawn) [Example 340, N′-(2-Chloro-5-((3-(2-Methyl-9H-Purin-6-yl)-5-(1-(4-Morpholinyl)Ethyl)-2-Pyridinyl)Amino)-3-Pyridinyl)-N,N-Dimethylsulfamide], the IC50 in experiment [1] is 14 nM. Moreover, in experiment [2], the inhibition constant (Ki) amounted to 4 nM.
For `COc1cc(Nc2ncc([C@@H](C)N3CCN(S(C)(=O)=O)CC3)cc2-c2nc(C)nc(N)n2)cnc1Cl` [Example 341, (R)-4-(2-(6-Chloro-5-Methoxypyridin-3-Ylamino)-5-(1-(4-(Methylsulfonyl)Piperazin-1-yl)Ethyl)Pyridin-3-yl)-6-Methyl-1,3,5-Triazin-2-Amine], in experiment [1], the IC50 is 17 nM. Besides, the inhibitory constant (Ki) in experiment [2] is 19 nM.
Taken in the same sequence, the figures for `COc1cc(Nc2ncc(C(C)(C)O)cc2-c2nc(C)nc(N)n2)cnc1Cl` [Example 342, 2-(5-(4-Amino-6-Methyl-1,3,5-Triazin-2-yl)-6-(6-Chloro-5-Methoxypyridin-3-Ylamino)Pyridin-3-yl)Propan-2-ol] were 8 nM and 25 nM.
In the same order, the values of `COc1ncc(Nc2ncc(C3CCOCC3)cc2-c2nc(C)nc(N)n2)cc1F` [Example 344, 4-(2-(5-Fluoro-6-Methoxypyridin-3-Ylamino)-5-(Tetrahydro-2H-Pyran-4-yl)Pyridin-3-yl)-6-Methyl-1,3,5-Triazin-2-Amine] are 14 nM and 5 nM.
Taken in the same sequence, the figures for `COc1ncc(Nc2ncc(C(C)(C)O)cc2-c2cc(N)nc(C)n2)cc1F` [Example 345, 2-(5-(6-Amino-2-Methylpyrimidin-4-yl)-6-(5-Fluoro-6-Methoxypyridin-3-Ylamino)Pyridin-3-yl)Propan-2-ol] were 35 nM and 13 nM.
With `COc1ncc(Nc2ncc(C(C)(C)C(=O)O)cc2-c2nc(C)nc(N)n2)cc1F` [Example 346, 2-(5-(4-Amino-6-Methyl-1,3,5-Triazin-2-yl)-6-(5-Fluoro-6-Methoxypyridin-3-Ylamino)Pyridin-3-yl)-2-Methylpropanoic Acid], the IC50 in experiment [1] is over 10000 nM. The inhibition constant (Ki) in experiment [2] came out at 377 nM.
Taken in the same sequence, the figures for `COc1ncc(Nc2ncc(C(O)C(C)(C)O)cc2-c2nc(C)nc(N)n2)cc1F` (stereo not drawn) [Example 347, 1-(5-(4-Amino-6-Methyl-1,3,5-Triazin-2-yl)-6-(5-Fluoro-6-Methoxypyridin-3-Ylamino)Pyridin-3-yl)-2-Methylpropane-1,2-Diol] were 108 nM and 75 nM.
In the same order, the values of `COc1ncc(Nc2ncc(C(C)O)cc2-c2nc(C)nc(N)n2)cc1F` (stereo not drawn) [Example 349, 1-(5-(4-Amino-6-Methyl-1,3,5-Triazin-2-yl)-6-(5-Fluoro-6-Methoxypyridin-3-Ylamino)Pyridin-3-yl)Ethanol] are 13 nM and 59 nM.
Taken in the same sequence, the figures for `COc1cc(Nc2ncc(C(C)(C)O)cc2-c2nc(C)nc(N)n2)cnc1OC` [Example 350, 2-(5-(4-Amino-6-Methyl-1,3,5-Triazin-2-yl)-6-(5,6-Dimethoxypyridin-3-Ylamino)Pyridin-3-yl)Propan-2-ol] were 7 nM and 19 nM.
`COc1ncc(Nc2ncc(C(OC(=O)c3cccc(Cl)c3)C(C)(C)O)cc2-c2nc(C)nc(N)n2)cc1F` (stereo not drawn) [Example 351, 1-(5-(4-Amino-6-Methyl-1,3,5-Triazin-2-yl)-6-(5-Fluoro-6-Methoxypyridin-3-Ylamino)Pyridin-3-yl)-2-Hydroxy-2-Methylpropyl 3-Chlorobenzoate]: in experiment [1], the IC50 was determined as 70 nM. For the same molecule, the Ki in experiment [2] is 9 nM.
In the same order, the values of `COc1ncc(Nc2ncc(C(C)(C)O)cc2-c2nc(C)nc(N)n2)cc1C` [Example 354, 2-(5-(4-Amino-6-Methyl-1,3,5-Triazin-2-yl)-6-(6-Methoxy-5-Methylpyridin-3-Ylamino)Pyridin-3-yl)Propan-2-ol] are 37 nM and 12 nM.
